# Test results reported in patent publication US20150105252A1, “SUBSTITUTED PYRAZOLES AS HERBICIDES” (E I DU PONT DE NEMOURS AND COMPANY, priority 2013, published 2015).
# Legend:
# velvetleaf [1] = assay: Test A preemergence; type: in vivo, Abutilon theophrasti; conditions: preemergence; for Velvetleaf plant response rating (0 to 100 scale): 125 g ai/ha, visual injury approx. 10 days after treatment; for Velvetleaf plant response rating: 500 g ai/ha, visual injury after approx. 10 days, 0 to 100 scale (0 no effect, 100 complete control)
# Outline: (§1)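 Visual injury ratings, 0 = no effect to 100 = complete control, taken about 10 days after treatment against untreated controls. Test chemicals, in a non-phytotoxic surfactant-containing solvent, were sprayed onto soil preemergence or onto one- to two-leaf plants (2–10 cm) postemergence, in loam–sand soil under greenhouse conditions.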
# sedge, umbrella = assay: Test B flood; type: in vivo, Cyperus difformis; conditions: 250 g ai/ha, visual rating on 0 to 100 scale (0 no effect, 100 complete control), 13 to 15 days
# Outline: (§2)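 Visual ratings (0 = no effect, 100 = complete control) versus untreated controls were taken 13–15 days after treatment of greenhouse plants. Treatment was added to paddy water held at 3 cm depth on 2-leaf-stage seedlings.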
# foxtail, giant [2] = assay: Test A postemergence; type: in vivo, Setaria faberii
# Outline: as §1
# ducksalad = assay: Test B flood; type: in vivo, Heteranthera limosa; conditions: 250 g ai/ha, visual rating on 0 to 100 scale (0 no effect, 100 complete control), 13 to 15 days
# Outline: as §2
# crabgrass, large [3] = assay: Test A preemergence; type: in vivo, Digitaria sanguinalis; conditions: preemergence; for Crabgrass, Large plant response rating (0 to 100 scale): 125 g ai/ha, visual injury approx. 10 days after treatment; for Crabgrass, Large plant response rating: 500 g ai/ha, visual injury after approx. 10 days, 0 to 100 scale (0 no effect, 100 complete control)
# Outline: as §1
# rice = assay: Test B flood; type: in vivo, Oryza sativa; conditions: 250 g ai/ha, visual rating on 0 to 100 scale (0 no effect, 100 complete control), 13 to 15 days
# Outline: as §2
# barnyardgrass [4] = assay: Test B flood; type: in vivo, Echinochloa crus-galli; conditions: 250 g ai/ha, visual rating on 0 to 100 scale (0 no effect, 100 complete control), 13 to 15 days
# Outline: as §2
# pigweed [5] = assay: Test A preemergence; type: in vivo, Amaranthus retroflexus; conditions: preemergence; for Pigweed plant response rating (0 to 100 scale): 125 g ai/ha, visual injury approx. 10 days after treatment; for Pigweed plant response rating: 500 g ai/ha, visual injury after approx. 10 days, 0 to 100 scale (0 no effect, 100 complete control)
# Outline: as §1
# velvetleaf [6] = assay: Test A postemergence; type: in vivo, Abutilon theophrasti; conditions: Postemergence
# Outline: as §1
# morningglory [7] = assay: Test A postemergence; type: in vivo, Ipomoea spp.; conditions: Postemergence
# Outline: as §1
# morningglory [8] = assay: Test A preemergence; type: in vivo, Ipomoea spp.; conditions: preemergence; for Morningglory plant response rating (0 to 100 scale): 125 g ai/ha, visual injury approx. 10 days after treatment; for Morningglory plant response rating: 500 g ai/ha, visual injury after approx. 10 days, 0 to 100 scale (0 no effect, 100 complete control)
# Outline: as §1
# corn [9] = assay: Test A postemergence; type: in vivo, Zea mays
# Outline: as §1
# barnyardgrass [10] = assay: Test A postemergence; type: in vivo, Echinochloa crus-galli
# Outline: as §1
# foxtail, giant [11] = assay: Test A preemergence; type: in vivo, Setaria faberii; conditions: preemergence; for Foxtail, Giant plant response rating (0 to 100 scale): 125 g ai/ha, visual injury approx. 10 days after treatment; for Foxtail, Giant plant response rating: 500 g ai/ha, visual injury after approx. 10 days, 0 to 100 scale (0 no effect, 100 complete control)
# Outline: as §1
# corn [12] = assay: Test A preemergence; type: in vivo, Zea mays; conditions: preemergence; for Corn plant response rating (0 to 100 scale): 125 g ai/ha, visual injury approx. 10 days after treatment; for Corn plant response rating: 500 g ai/ha, visual injury after approx. 10 days, 0 to 100 scale (0 no effect, 100 complete control)
# Outline: as §1
# crabgrass, large [13] = assay: Test A postemergence; type: in vivo, Digitaria sanguinalis
# Outline: as §1
# pigweed [14] = assay: Test A postemergence; type: in vivo, Amaranthus retroflexus; conditions: Postemergence
# Outline: as §1
# wheat [15] = assay: Test A postemergence; type: in vivo, Triticum aestivum; conditions: Postemergence
# Outline: as §1
# barnyardgrass [16] = assay: Test A preemergence; type: in vivo, Echinochloa crus-galli; conditions: preemergence; for Barnyardgrass plant response rating (0 to 100 scale, 0 is no effect, 100 is complete control): 125 g ai/ha, visual injury approx. 10 days after treatment; for Barnyardgrass plant response rating: 500 g ai/ha, visual injury after approx. 10 days, 0 to 100 scale (0 no effect, 100 complete control)
# Outline: as §1
# wheat [17] = assay: Test A preemergence; type: in vivo, Triticum aestivum; conditions: preemergence; for Wheat plant response rating (0 to 100 scale): 125 g ai/ha, visual injury approx. 10 days after treatment; for Wheat plant response rating: 500 g ai/ha, visual injury after approx. 10 days, 0 to 100 scale (0 no effect, 100 complete control)
# Outline: as §1
# [18] = Postemergence, 500 g ai/ha, 0 to 100 scale (0 no effect, 100 complete control)
# [19] = postemergence, 125 g ai/ha, about 10 days, visual rating on 0 to 100 scale (0 no effect, 100 complete control)
# [20] = 125 g ai/ha, 0 to 100 scale, 0 no effect, 100 complete control
# [21] = 500 g ai/ha, 0 to 100 scale (0 no effect, 100 complete control)
# [22] = Postemergence, 125 g ai/ha, 0 to 100 scale, 0 no effect, 100 complete control
Structure (SMILES),Velvetleaf plant response rating (0 to 100 scale) (velvetleaf [1]),"Plant response rating, Sedge, Umbrella (sedge, umbrella)","Foxtail, Giant plant response rating (foxtail, giant [2]; [18])","Plant response rating, Ducksalad (ducksalad)","Crabgrass, Large plant response rating (0 to 100 scale) (crabgrass, large [3])","Crabgrass, Large plant response rating (crabgrass, large [3])","Plant response rating, Rice (rice)","Plant response rating, Barnyardgrass (barnyardgrass [4])",Pigweed plant response rating (0 to 100 scale) (pigweed [5]),Velvetleaf plant response rating (velvetleaf [6]; [20]),Velvetleaf plant response rating (velvetleaf [6]; [21]),Morningglory plant response rating (morningglory [7]; [20]),Morningglory plant response rating (morningglory [7]; [21]),Morningglory plant response rating (0 to 100 scale) (morningglory [8]),Corn plant response rating (corn [9]; [18]),Barnyardgrass plant response rating (barnyardgrass [10]; [18]),"Foxtail, Giant plant response rating (0 to 100 scale) (foxtail, giant [11])","Foxtail, Giant plant response rating (foxtail, giant [11])",Corn plant response rating (0 to 100 scale) (corn [12]),Corn plant response rating (corn [12]),also measured
CCCNC(=O)c1cc(C)n(Cc2ccnc(C(F)(F)F)c2)n1 [Compound 191],10,55,90,80,100,100,0,0,100,90,100,90,90,90,100,100,100,100,10,60,"Velvetleaf plant response rating (velvetleaf [1]): 100; Foxtail, Giant plant response rating (foxtail, giant [2]; [19]): 80; Pigweed plant response rating (pigweed [5]): 100; Morningglory plant response rating (morningglory [8]): 100; Corn plant response rating (corn [9]; [19]): 60; Barnyardgrass plant response rating (barnyardgrass [10]; [19]): 70; Crabgrass, Large plant response rating (crabgrass, large [13]; [18]): 90; Crabgrass, Large plant response rating (crabgrass, large [13]; [19]): 80; Pigweed plant response rating (pigweed [14]; [20]): 100; Pigweed plant response rating (pigweed [14]; [21]): 100; Wheat plant response rating (wheat [15]; [20]): 80; Wheat plant response rating (wheat [15]; [21]): 60; Barnyardgrass plant response rating (0 to 100 scale, 0 is no effect, 100 is complete control) (barnyardgrass [16]): 20; Barnyardgrass plant response rating (barnyardgrass [16]): 100; Wheat plant response rating (0 to 100 scale) (wheat [17]): 0; Wheat plant response rating (wheat [17]): 70"
CCc1cc(C(=O)NN(C)C)nn1Cc1ccnc(C(F)(F)F)c1 [Compound 192],0,0,30,0,0,10,0,0,0,50,80,30,90,0,50,30,0,0,0,0,"Velvetleaf plant response rating (velvetleaf [1]): 0; Foxtail, Giant plant response rating (foxtail, giant [2]; [19]): 10; Pigweed plant response rating (pigweed [5]): 0; Morningglory plant response rating (morningglory [8]): 10; Corn plant response rating (corn [9]; [19]): 20; Barnyardgrass plant response rating (barnyardgrass [10]; [19]): 10; Crabgrass, Large plant response rating (crabgrass, large [13]; [18]): 20; Crabgrass, Large plant response rating (crabgrass, large [13]; [19]): 10; Pigweed plant response rating (pigweed [14]; [20]): 80; Pigweed plant response rating (pigweed [14]; [21]): 90; Wheat plant response rating (wheat [15]; [20]): 0; Wheat plant response rating (wheat [15]; [21]): 10; Barnyardgrass plant response rating (0 to 100 scale, 0 is no effect, 100 is complete control) (barnyardgrass [16]): 0; Barnyardgrass plant response rating (barnyardgrass [16]): 0; Wheat plant response rating (0 to 100 scale) (wheat [17]): 0; Wheat plant response rating (wheat [17]): 0"
CCc1cc(C(=O)NC2CC2)nn1Oc1cccc(C(F)(F)F)c1 [Compound 215],0,20,70,30,50,100,10,0,10,10,60,30,100,0,20,40,10,70,0,0,"Foxtail, Giant plant response rating (foxtail, giant [2]; [22]): 10; Corn plant response rating (corn [9]; [22]): 10; Barnyardgrass plant response rating (barnyardgrass [10]; [22]): 10; Crabgrass, Large plant response rating (crabgrass, large [13]; [22]): 10; Crabgrass, Large plant response rating (crabgrass, large [13]; [18]): 60; Pigweed plant response rating (pigweed [14]; [20]): 40; Pigweed plant response rating (pigweed [14]; [21]): 90; Wheat plant response rating (wheat [15]; [20]): 0; Wheat plant response rating (wheat [15]; [21]): 10; Barnyardgrass plant response rating (0 to 100 scale, 0 is no effect, 100 is complete control) (barnyardgrass [16]): 0; Barnyardgrass plant response rating (barnyardgrass [16]): 60; Wheat plant response rating (0 to 100 scale) (wheat [17]): 0"
CCc1cc(C(=O)NCC(F)(F)F)nn1Oc1cccc(OC(F)(F)F)c1 [Compound 221],0,0,30,0,10,90,0,0,0,0,20,30,80,0,20,10,0,40,0,0,"Foxtail, Giant plant response rating (foxtail, giant [2]; [22]): 10; Corn plant response rating (corn [9]; [22]): 10; Barnyardgrass plant response rating (barnyardgrass [10]; [22]): 10; Crabgrass, Large plant response rating (crabgrass, large [13]; [22]): 10; Crabgrass, Large plant response rating (crabgrass, large [13]; [18]): 30; Pigweed plant response rating (pigweed [14]; [20]): 20; Pigweed plant response rating (pigweed [14]; [21]): 60; Wheat plant response rating (wheat [15]; [20]): 0; Wheat plant response rating (wheat [15]; [21]): 10; Barnyardgrass plant response rating (0 to 100 scale, 0 is no effect, 100 is complete control) (barnyardgrass [16]): 0; Barnyardgrass plant response rating (barnyardgrass [16]): 10; Wheat plant response rating (0 to 100 scale) (wheat [17]): 0"
